Paper PMC8453936, “Development and in vitro Profiling of Dual FXR/LTA4H Modulators” (Chemmedchem, 2021)
Where two headings read alike, the source gives them in different places.

Key:
full-length human FXR [1] = target: T1, full-length human FXR (Homo sapiens, UniProt Q96RI1); conditions: mean±S.E.M., n≥3, previously reported, cited from earlier work
T1 construct: coding for the full‐length human nuclear receptors FXR and RXRα; expressed in transfected cells; host or cells: HeLa
T1 sequence (Q96RI1 1-486): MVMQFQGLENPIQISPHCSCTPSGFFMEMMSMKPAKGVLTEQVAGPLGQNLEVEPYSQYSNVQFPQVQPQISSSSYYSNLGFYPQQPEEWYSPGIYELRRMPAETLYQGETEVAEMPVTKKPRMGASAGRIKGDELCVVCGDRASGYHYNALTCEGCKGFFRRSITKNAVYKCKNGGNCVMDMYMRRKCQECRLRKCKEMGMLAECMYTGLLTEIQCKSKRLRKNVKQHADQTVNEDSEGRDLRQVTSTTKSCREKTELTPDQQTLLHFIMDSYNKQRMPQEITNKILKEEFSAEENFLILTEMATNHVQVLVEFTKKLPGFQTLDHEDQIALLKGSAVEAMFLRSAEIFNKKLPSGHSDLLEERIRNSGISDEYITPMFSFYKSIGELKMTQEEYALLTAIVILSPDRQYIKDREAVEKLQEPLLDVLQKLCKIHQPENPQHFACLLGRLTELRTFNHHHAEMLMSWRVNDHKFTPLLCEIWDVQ
T1 sequence (P19793 1-462 partner): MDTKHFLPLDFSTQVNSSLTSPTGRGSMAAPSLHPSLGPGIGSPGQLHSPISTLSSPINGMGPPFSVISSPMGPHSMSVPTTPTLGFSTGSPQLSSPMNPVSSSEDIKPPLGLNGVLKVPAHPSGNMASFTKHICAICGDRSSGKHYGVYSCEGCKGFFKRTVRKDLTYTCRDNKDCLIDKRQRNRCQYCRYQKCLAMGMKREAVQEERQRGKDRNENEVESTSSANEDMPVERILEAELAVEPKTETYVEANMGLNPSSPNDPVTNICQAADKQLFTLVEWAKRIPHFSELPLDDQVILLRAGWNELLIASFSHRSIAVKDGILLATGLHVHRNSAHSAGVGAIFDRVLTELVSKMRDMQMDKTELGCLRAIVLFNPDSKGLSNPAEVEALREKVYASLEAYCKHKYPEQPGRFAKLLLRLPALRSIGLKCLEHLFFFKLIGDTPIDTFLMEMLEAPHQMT

full-length human FXR [2] = target: T1, full-length human FXR; assay: Full-length FXR:RXR reporter gene assay (BSEP promoter, HeLa, transiently transfected); format: cell-based; conditions: mean±S.E.M., n≥3
Method: Full‐length FXR:RXR reporter gene assay. HeLa cells were grown in DMEM high glucose supplemented with 10 % FCS, sodium pyruvate (1 mM), penicillin (100 U/mL) and streptomycin (100 μg/mL) at 37 °C and 5 % CO2 and seeded in 96‐well plates 24 h before transfection with a density of 8000 cells per well. 3.5 h before transfection, medium was changed to DMEM high glucose, supplemented with sodium pyruvate (1 mM), penicillin (100 U/mL), streptomycin (100 μg/mL) and 0.5 % charcoal‐stripped FCS. Cells were then transiently transfected with using the calcium phosphate transfection method with pGL3basic‐BSEP[26, 27] (containing a shortened construct of the promotor of the bile salt export protein (BSEP) cloned into the SacI/NheI cleavage site in front of the luciferase gene), pcDNA3‐hFXR[26] and pSG5‐hRXR[38] coding for the full‐length human nuclear receptors FXR and RXRα, and pRL‐SV40 (Promega) for normalization of transfection efficiency and cell growth. 16 h after transfection, medium was changed to DMEM high glucose, supplemented with sodium pyruvate (1 mM), penicillin (100 U/mL), streptomycin (100 μg/mL) and 0.5 % charcoal‐stripped FCS. 24 h after transfection, medium was changed to DMEM without phenol red, supplemented with sodium pyruvate (1 mM), penicillin (100 U/mL), streptomycin (100 μg/mL), L‐glutamine (2 mM) and 0.5 % charcoal‐stripped FCS, now additionally containing 0.1 % DMSO and the respective test compound or 0.1 % DMSO alone as untreated control. Each sample was tested in triplicate wells and each experiment was repeated independently at least three times. Following 24 h incubation with the test compounds, cells were assayed for luciferase activity using Dual‐Glo Luciferase Assay System (Promega) according to the manufacturer's protocol. Luminescence was measured with a Tecan Spark M luminometer (Tecan). Normalization of transfection efficiency and cell growth was done by division of firefly luciferase data by Renilla luciferase data multiplied by 1000 resulting in relative light units (RLU). Fold activation was obtained by dividing the mean RLU of the tested compound at a respective concentration by the mean RLU of untreated control. EC50 and standard error of the mean values were calculated with the mean fold activation values of at least three independent experiments with SigmaPlot 10.0 (Systat Software GmbH, Erkrath, Germany) using a four‐parameter logistic regression.

[3] = full-length FXR reporter gene assay, BSEP promoter, HeLa

| Structure (SMILES) | FXR efficacy (maximum FXR activation relative to 3 μM GW4064) (full-length human FXR [1]; 3 μM GW4064 = 100 % activation) [%] | EC50 (full-length human FXR [1]; [3]) [µM] | FXR efficacy (maximum FXR activation relative to 3 μM GW4064) (full-length human FXR [2]; 3 μM GW4064 = 100 % activation) [%] | EC50 (full-length human FXR [2]; [3]) [µM] |
| --- | --- | --- | --- | --- |
| O=C(O)c1cccc(NC(=O)c2ccc(OCCCc3ccccc3)cc2)c1 [compound 8] | 22±1 | 0.029 ± 0.006 | – | – |
| O=C(O)c1ccnc(NC(=O)c2ccc(OCCCc3ccccc3)cc2)c1 [compound 19, 2‐(4‐(3‐Phenylpropoxy)benzamido)isonicotinic acid] | – | – | 21±1 | 0.46 ± 0.08 |
